Calls of active or inactive are those of the source. The calls are words filed in the database; no cut-off is given here.
Columns and labels:
[1] = system: PANC-1; experiment: Anticancer activity against human PANC-1 cells assessed as reduction in cell viability in nutrient-deprived medium after 24 hrs by WST-8 assay; assay type: functional
[2] = system: PANC-1; experiment: Induction of cell morphological changes in human PANC-1 cells assessed as dead cells at 0.1 uM after 24 hrs in nutrient-deprived medium by ethidium bromide-acridine orange staining based fluorescence microscopic analysis; assay type: functional
[3] = system: PANC-1; experiment: Inhibition of cell migration in human PANC1 cells assessed as open wound area at 5 uM cultured in nutrient rich DMEM medium measured after 12 hrs by quantitative real-time imaging based wound healing assay (reference value: 57.5%); assay type: functional; set-up: scale not given: the % may be the effect or the level left
[4] = system: PANC-1; experiment: Inhibition of cell migration in human PANC1 cells assessed as open wound area at 5 uM cultured in nutrient rich DMEM medium measured after 24 hrs by quantitative real-time imaging based wound healing assay (reference value: 15%); assay type: functional; set-up: scale not given: the % may be the effect or the level left
[5] = system: PANC-1; experiment: Inhibition of colony formation in human PANC-1 cells in nutrient rich DMEM medium measured after 24 hrs by crystal violet staining based assay; assay type: functional, cell-based; settings: dose microM 2.5-10, time 24.0 hrs
[6] = system: PANC-1; experiment: Inhibition of colony formation in human PANC-1 cells in nutrient rich DMEM medium at 2.5 uM measured after 24 hrs by crystal violet staining based assay (reference value: 33%); assay type: functional
[7] = system: PANC-1; experiment: Inhibition of colony formation in human PANC-1 cells in nutrient rich DMEM medium at 5 uM measured after 24 hrs by crystal violet staining based assay (reference value: 33%); assay type: functional
[8] = system: PANC-1; experiment: Inhibition of colony formation in human PANC-1 cells in nutrient rich DMEM medium at 10 uM measured after 24 hrs by crystal violet staining based assay (reference value: 33%); assay type: functional
[9] = system: PANC-1; experiment: Inhibition of PI3K/Akt/mTOR signaling in human PANC-1 cells assessed as decrease in PI3K p110alpha level measured after 3 to 6 hrs by Western blot analysis; assay type: cell-based; settings: dose microM 1-10, time hrs 3-6
[10] = system: PANC-1; experiment: Inhibition of PI3K/Akt/mTOR signaling in human PANC-1 cells assessed as decrease in PI3K p110beta level measured after 3 to 6 hrs by Western blot analysis; assay type: cell-based; settings: dose 1-10 µM, time 3-6 hrs
[11] = system: PANC-1; experiment: Inhibition of PI3K/Akt/mTOR signaling in human PANC-1 cells assessed as decrease in Akt level measured after 3 to 6 hrs by Western blot analysis; assay type: cell-based; settings: dose 1-10 µM, time 3-6 hrs
[12] = system: PANC-1; experiment: Inhibition of PI3K/Akt/mTOR signaling in human PANC-1 cells assessed as decrease in pAkt at S473 level measured after 3 to 6 hrs by Western blot analysis; assay type: cell-based; settings: dose 1-10 µM, time 3-6 hrs
[13] = system: PANC-1; experiment: Inhibition of PI3K/Akt/mTOR signaling in human PANC-1 cells assessed as decrease in mTOR level measured after 3 to 6 hrs by Western blot analysis; assay type: cell-based; settings: dose 1-10 µM, time 3-6 hrs
[14] = system: PANC-1; experiment: Inhibition of PI3K/Akt/mTOR signaling in human PANC-1 cells assessed as decrease in pmTOR S2481 level measured after 3 to 6 hrs by Western blot analysis; assay type: cell-based; settings: dose 1-10 µM, time 3-6 hrs
[15] = system: PANC-1; experiment: Inhibition of PI3K/Akt/mTOR signaling in human PANC-1 cells assessed as decrease in PI3K p110alpha level at 1 to 10 uM by Western blot analysis; assay type: cell-based; settings: dose 1-10 µM, time 3-6 hrs, TDE = time-dependent effect
[16] = system: PANC-1; experiment: Inhibition of PI3K/Akt/mTOR signaling in human PANC-1 cells assessed as decrease in PI3K p110beta level at 1 to 10 uM by Western blot analysis; assay type: cell-based; settings: dose 1-10 µM, time 3-6 hrs, TDE = time-dependent effect
[17] = system: PANC-1; experiment: Inhibition of PI3K/Akt/mTOR signaling in human PANC-1 cells assessed as decrease in Akt level at 1 to 10 uM by Western blot analysis; assay type: cell-based; settings: dose 1-10 µM, time 3-6 hrs, TDE = time-dependent effect
[18] = system: PANC-1; experiment: Inhibition of PI3K/Akt/mTOR signaling in human PANC-1 cells assessed as decrease in pAkt at S473 level at 1 to 10 uM by Western blot analysis; assay type: cell-based; settings: dose 1-10 µM, time 3-6 hrs, TDE = time-dependent effect
[19] = system: PANC-1; experiment: Inhibition of PI3K/Akt/mTOR signaling in human PANC-1 cells assessed as decrease in mTOR level at 1 to 10 uM by Western blot analysis; assay type: cell-based; settings: dose 1-10 µM, time 3-6 hrs, TDE = time-dependent effect
[20] = system: PANC-1; experiment: Inhibition of PI3K/Akt/mTOR signaling in human PANC-1 cells assessed as decrease in pmTOR S2481 level at 1 to 10 uM by Western blot analysis; assay type: cell-based; settings: dose 1-10 µM, time 3-6 hrs, TDE = time-dependent effect
[21] = system: PANC-1; experiment: Inhibition of PI3K/Akt/mTOR signaling in human PANC-1 cells assessed as decrease in LC3-II level at 1 to 10 uM measured after 3 to 6 hrs by Western blot analysis; assay type: cell-based; settings: dose 1-10 µM, time 3-6 hrs

Work on `CC(C)[C@H]1C[C@]2(CC[C@]3(C(C)C)C[C@H]23)OC2=C1C(=O)C(C)(C)C(=O)C2(C)C` yielded a PC50 [1] of 10 µM.

With `CC(C)CC(=O)c1c(O)c([C@H](C2=C(O)C(C)(C)C(=O)C(C)(C)C2=O)C(C)C)c(O)c2c1O[C@]1(C)C=C[C@@H](C(C)C)C[C@H]21` the PC50 [1] was 0.065 µM, the Activity [2] was “Active” and the Activity [3] was 95%. The Activity [4] was 92%, the inhibition [5] was “Dose-dependent effect” and the inhibition at 2.5 µM [6] was 41%. For the same compound, the inhibition at 5 µM [7] was 63%, the inhibition at 10 µM [8] was 80% and the inhibition [9] was “Dose-dependent effect”. For the same compound, the inhibition [10] was “Dose-dependent effect”, the inhibition [11] was “Dose-dependent effect” and the inhibition [12] was “Dose-dependent effect”. The inhibition [13] was “Dose-dependent effect”, the inhibition [14] was “Dose-dependent effect” and the inhibition [15] was “Tde”. The inhibition [16] was “Tde”, the inhibition [17] was “Tde” and the inhibition [18] was “Tde”. For the same compound, the inhibition [19] was “Tde”, the inhibition [20] was “Tde” and the inhibition [21] was “Active”.

Compound `COc1ccc(-c2cc(=O)c3c(O)c(C)c(OC)cc3o2)cc1` has a PC50 [1] of 6.1 µM.

`CC(C)[C@@H]1C=C[C@@]2(C)OC3=C(C(=O)C(C)(C)C(=O)C3(C)C)[C@@H](C(C)C)[C@H]2C1` showed a PC50 [1] of 5 µM.

`CC(C)CC(=O)c1c(O)c2c(c3c1OC1(O)C(C(=O)C(C)(C)C(=O)C1(C)C)[C@@H]3C(C)C)OC1=C(C(=O)C(C)(C)C(=O)C1(C)C)[C@@H]2C(C)C` (some centres not stated) gave a PC50 [1] of 0.6 µM.

`CC(C)=CCCC1=CCC2(C(=O)C(C)(C)C(=O)C(C)(C)C2=O)[C@@H](C(C)C)C1` showed a PC50 [1] of 0.02 µM.

`Oc1cc(O)c2c(c1)O[C@H](c1ccc(O)c(O)c1)[C@@H](O)C2` [CIANIDANOL] showed a PC50 [1] of over 100 µM.

`CC1(C)C=C2C(=O)C(C)(C)C(=O)C(C)(C)C2(O)OO1` (configuration not stated) [ENDOPEROXIDE HORMONE G3] was tested, and the PC50 [1] was 32.3 µM.

Work on `CC(C)[C@@H]1C=C[C@@]2(C)OC3=C(C(=O)C(C)(C)C(=O)C3(C)C)[C@H](C(C)C)[C@H]2C1` yielded a PC50 [1] of 11.7 µM.

Compound `COc1cc(C[C@H]2C(=O)OC[C@@H]2Cc2ccc(OC)c(OC)c2)ccc1O` [ARCTIGENIN] has a PC50 [1] of 0.7 µM.

Compound `COc1ccc(-c2cc(=O)c3c(O)c(C)c(OC)c(C)c3o2)cc1` has a PC50 [1] of 1 µM.

For `CCC(C)[C@H](C1=C(O)C(C)(C)C(=O)C(C)(C)C1=O)c1c(O)c(C(=O)CC(C)C)c(O)c2c1O[C@]1(C)C=C[C@@H](C(C)C)C[C@H]21` (some centres not stated), the PC50 [1] was 0.01 µM and the Activity [2] was “Active”.

For `C=C1CC[C@H]2[C@@H](C(C)C)C3=C(O[C@]2(C)CC[C@@H]2[C@@H]1CC2(C)C)C(C)(C)C(=O)C(C)(C)C3=O`, the PC50 [1] was 28.1 µM.

With `CC(C)[C@@H]1C[C@]2(CC[C@]3(C(C)C)C[C@H]23)OC2=C1C(=O)C(C)(C)C(=O)C2(C)C` the PC50 [1] was 3.9 µM.

In the case of `COc1cc([C@H]2c3cc(O)c(OC)cc3C[C@H](C)[C@@H]2C)ccc1O`, the PC50 [1] is reported as 88.3 µM.

`CC(C)[C@@H]1C[C@]2(CC[C@H]3C[C@@H]2C3(C)C)OC2=C1C(=O)C(C)(C)C(=O)C2(C)C` showed a PC50 [1] of 8 µM.

Reference: ChEMBL document CHEMBL4699445, “Highly Potent Antiausterity Agents from Callistemon citrinus and Their Mechanism of Action against the PANC-1 Human Pancreatic Cancer Cell Line” (2020)
